The results in this text go back to PubChem BioAssay AID256 (DTP/NCI, 2004).

Several values for one entry are separate records, joined by “and”; a condition that tells them apart may be missing. Equal values may be shown once. Toxic doses and inconclusive results are not listed.

For this assay, the system named is CD2F1 mice, L1210 leukemia ip, survival T/C. Kind of assay: NCI In Vivo Anticancer Drug Screen. Data for tumor model L1210 Leukemia (intraperitoneal) in CD2F1 (CDF1) mice. To be noted: higher = longer survival. The method, boiled down:
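Each value reflects a quotient of treated over vehicle control outcomes in mice with a transplanted tumor.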

Setting [1] is: endpoint: mean survival time, dose: 100.0 mg/kg/injection, schedule: Q04DX002 (ip), vehicle: saline with Tween-80.
The mark [2] stands for this setting: endpoint: mean survival time, dose: 200.0 mg/kg/injection, schedule: Q04DX002 (ip), vehicle: saline with Tween-80.
The mark [3] stands for this setting: endpoint: mean survival time, dose: 400.0 mg/kg/injection, schedule: Q04DX002 (ip), vehicle: saline with Tween-80.

Regarding `CCOC(=O)C(CC(C)C)NC(=O)C(Cc1ccc(N(CCCl)CCCl)cc1)NC(C)=O` (stereo not given), the T/C by setting is: (endpoint: mean survival time, dose: 0.5 mg/kg/injection, schedule: Q01DX009 (ip), vehicle: saline) 95 % of control; (endpoint: mean survival time, dose: 1.0 mg/kg/injection, schedule: Q01DX009 (ip), vehicle: saline) 92 % of control; (endpoint: mean survival time, dose: 1.0 mg/kg/injection, schedule: Q04DX003 (ip), vehicle: saline with Tween-80) 100 % of control; (endpoint: mean survival time, dose: 2.0 mg/kg/injection, schedule: Q01DX001 (ip), vehicle: saline with Tween-80) 102 % of control [middle of 4 runs]; (endpoint: mean survival time, dose: 2.0 mg/kg/injection, schedule: Q01DX009 (ip), vehicle: Klucel (hydroxypropylcellulose) (HPC)) 92 % of control and 95 % of control; (endpoint: mean survival time, dose: 2.0 mg/kg/injection, schedule: Q01DX009 (ip), vehicle: saline) 94 % of control. For the same compound, the T/C reads like this: (endpoint: mean survival time, dose: 2.0 mg/kg/injection, schedule: Q04DX003 (ip), vehicle: saline with Tween-80) 96 % of control and 97 % of control and 105 % of control; (endpoint: mean survival time, dose: 4.0 mg/kg/injection, schedule: Q01DX001 (ip), vehicle: saline with Tween-80) 102 % of control [middle of 4 runs]; (endpoint: mean survival time, dose: 4.0 mg/kg/injection, schedule: Q01DX009 (ip), vehicle: Klucel (hydroxypropylcellulose) (HPC)) 94 % of control and 95 % of control; (endpoint: mean survival time, dose: 4.0 mg/kg/injection, schedule: Q01DX009 (ip), vehicle: saline) 101 % of control; (endpoint: mean survival time, dose: 4.0 mg/kg/injection, schedule: Q04DX003 (ip), vehicle: saline with Tween-80) 105 % of control [middle of 4 runs]; (endpoint: mean survival time, dose: 8.0 mg/kg/injection, schedule: Q01DX001 (ip), vehicle: saline with Tween-80) 100 % of control and 98 % of control and 102 % of control. Also, the T/C is 94 % of control and 105 % of control (endpoint: mean survival time, dose: 8.0 mg/kg/injection, schedule: Q01DX009 (ip), vehicle: Klucel (hydroxypropylcellulose) (HPC)); 110 % of control and 95 % of control and 103 % of control (endpoint: mean survival time, dose: 8.0 mg/kg/injection, schedule: Q01DX009 (ip), vehicle: saline); 105 % of control [middle of 5 runs] (endpoint: mean survival time, dose: 8.0 mg/kg/injection, schedule: Q04DX003 (ip), vehicle: saline with Tween-80); 102 % of control [middle of 4 runs] (endpoint: mean survival time, dose: 16.0 mg/kg/injection, schedule: Q01DX001 (ip), vehicle: saline with Tween-80); 97 % of control and 111 % of control (endpoint: mean survival time, dose: 16.0 mg/kg/injection, schedule: Q01DX009 (ip), vehicle: Klucel (hydroxypropylcellulose) (HPC)); 120 % of control and 100 % of control and 121 % of control (endpoint: mean survival time, dose: 16.0 mg/kg/injection, schedule: Q01DX009 (ip), vehicle: saline). Also, the T/C reads like this: (endpoint: mean survival time, dose: 16.0 mg/kg/injection, schedule: Q04DX003 (ip), vehicle: saline) 110 % of control; (endpoint: mean survival time, dose: 32.0 mg/kg/injection, schedule: Q01DX001 (ip), vehicle: saline with Tween-80) 104 % of control [middle of 4 runs]; (endpoint: mean survival time, dose: 32.0 mg/kg/injection, schedule: Q01DX001 (ip), vehicle: saline) 105 % of control; (endpoint: mean survival time, dose: 32.0 mg/kg/injection, schedule: Q01DX009 (ip), vehicle: Klucel (hydroxypropylcellulose) (HPC)) 114 % of control; (endpoint: mean survival time, dose: 32.0 mg/kg/injection, schedule: Q01DX009 (ip), vehicle: saline) 101 % of control; (endpoint: mean survival time, dose: 32.0 mg/kg/injection, schedule: Q04DX003 (ip), vehicle: saline) 118 % of control. The T/C (endpoint: mean survival time, dose: 64.0 mg/kg/injection, schedule: Q01DX001 (ip), vehicle: saline with Tween-80) was 114 % of control and 108 % of control and 98 % of control; the T/C (endpoint: mean survival time, dose: 64.0 mg/kg/injection, schedule: Q01DX001 (ip), vehicle: saline) is 211 % of control; the T/C (endpoint: mean survival time, dose: 64.0 mg/kg/injection, schedule: Q01DX009 (ip), vehicle: Klucel (hydroxypropylcellulose) (HPC)) is 119 % of control; the T/C (endpoint: mean survival time, dose: 64.0 mg/kg/injection, schedule: Q01DX009 (ip), vehicle: saline) was 90 % of control; the T/C (endpoint: mean survival time, dose: 128.0 mg/kg/injection, schedule: Q01DX001 (ip), vehicle: saline with Tween-80) is 118 % of control and 104 % of control and 106 % of control; the T/C (endpoint: mean survival time, dose: 128.0 mg/kg/injection, schedule: Q01DX009 (ip), vehicle: saline) is 95 % of control and 105 % of control. Also, the T/C runs as follows: (endpoint: mean survival time, dose: 128.0 mg/kg/injection, schedule: Q04DX003 (ip), vehicle: saline with Tween-80) 120 % of control and 92 % of control; (endpoint: mean survival time, dose: 128.0 mg/kg/injection, schedule: Q04DX003 (ip), vehicle: saline) 170 % of control; (endpoint: mean survival time, dose: 256.0 mg/kg/injection, schedule: Q01DX001 (ip), vehicle: saline) 152 % of control; (endpoint: mean survival time, dose: 256.0 mg/kg/injection, schedule: Q01DX009 (ip), vehicle: saline) 103 % of control; (endpoint: mean survival time, dose: 256.0 mg/kg/injection, schedule: Q04DX003 (ip), vehicle: saline with Tween-80) 94 % of control and 107 % of control; (endpoint: mean survival time, dose: 256.0 mg/kg/injection, schedule: Q04DX003 (ip), vehicle: saline) 120 % of control. Also, the T/C (endpoint: mean survival time, dose: 512.0 mg/kg/injection, schedule: Q01DX009 (ip), vehicle: saline) was 117 % of control.

As for `O=C1CC2CCC1C2Cl` (stereo not given), the T/C is 101 % of control (endpoint: mean survival time, dose: 6.25 mg/kg/injection, schedule: Q04DX003 (ip), vehicle: saline with Tween-80); 113 % of control (endpoint: mean survival time, dose: 12.5 mg/kg/injection, schedule: Q04DX003 (ip), vehicle: saline with Tween-80); 97 % of control (endpoint: mean survival time, dose: 25.0 mg/kg/injection, schedule: Q04DX003 (ip), vehicle: saline with Tween-80); 97 % of control (endpoint: mean survival time, dose: 50.0 mg/kg/injection, schedule: Q04DX003 (ip), vehicle: saline with Tween-80).

`C=C(Br)C(=O)O`: the T/C (endpoint: mean survival time, dose: 100.0 mg/kg/injection, schedule: Q01DX001 (ip), vehicle: saline) was 93 % of control and the T/C (endpoint: mean survival time, dose: 200.0 mg/kg/injection, schedule: Q01DX001 (ip), vehicle: saline) is 98 % of control.

With `O=C(NC(=S)Nc1cccc(O)c1)c1cccc(Br)c1`, the T/C by setting is: (endpoint: mean survival time, dose: 100.0 mg/kg/injection, schedule: Q01DX009 (ip), vehicle: saline with Tween-80) 96 % of control; (endpoint: mean survival time, dose: 200.0 mg/kg/injection, schedule: Q01DX009 (ip), vehicle: saline with Tween-80) 96 % of control; (endpoint: mean survival time, dose: 400.0 mg/kg/injection, schedule: Q01DX009 (ip), vehicle: saline with Tween-80) 97 % of control.

On to `Nc1ccc(CCc2nc(N)[nH]c(=O)c2-c2ccc(Cl)cc2)cc1`, for which the T/C reads like this: (endpoint: mean survival time, dose: 37.5 mg/kg/injection, schedule: Q01DX001 (ip), vehicle: saline with Tween-80) 100 % of control; (endpoint: mean survival time, dose: 75.0 mg/kg/injection, schedule: Q01DX001 (ip), vehicle: saline with Tween-80) 91 % of control; (endpoint: mean survival time, dose: 150.0 mg/kg/injection, schedule: Q01DX001 (ip), vehicle: saline with Tween-80) 94 % of control.

Consider `O=C(O)C1=CC(O)C(O)C(O)C1` (stereo not given), for which the T/C (endpoint: mean survival time, dose: 100.0 mg/kg/injection, schedule: Q04DX003 (ip), vehicle: saline) was 102 % of control; the T/C (endpoint: mean survival time, dose: 200.0 mg/kg/injection, schedule: Q04DX003 (ip), vehicle: saline) was 96 % of control; the T/C (endpoint: mean survival time, dose: 400.0 mg/kg/injection, schedule: Q04DX003 (ip), vehicle: saline) was 90 % of control.

In the case of `CC(C)c1nn[nH]n1`, the T/C by setting is: (endpoint: median survival time, dose: 50.0 mg/kg/injection, schedule: Q01DX009 (ip), vehicle: saline + alcohol) 93 % of control; (endpoint: median survival time, dose: 100.0 mg/kg/injection, schedule: Q01DX009 (ip), vehicle: saline + alcohol) 91 % of control; (endpoint: median survival time, dose: 200.0 mg/kg/injection, schedule: Q01DX009 (ip), vehicle: saline + alcohol) 100 % of control; (endpoint: median survival time, dose: 400.0 mg/kg/injection, schedule: Q01DX009 (ip), vehicle: saline + alcohol) 93 % of control.

With `CC1C(C(=O)c2ccc(-c3ccccc3)cc2)N1c1ccccc1` (stereo not given), the T/C is 94 % of control (endpoint: mean survival time, dose: 100.0 mg/kg/injection, schedule: Q01DX001 (ip), vehicle: Klucel (hydroxypropylcellulose) (HPC)); 101 % of control (endpoint: mean survival time, dose: 200.0 mg/kg/injection, schedule: Q01DX001 (ip), vehicle: Klucel (hydroxypropylcellulose) (HPC)); 86 % of control (endpoint: mean survival time, dose: 400.0 mg/kg/injection, schedule: Q01DX001 (ip), vehicle: Klucel (hydroxypropylcellulose) (HPC)).

Turning to `CCCCCCCCOc1ccc(Cl)cc1`, the T/C reads like this: under setting [1], 90 % of control; under setting [2], 90 % of control; under setting [3], 93 % of control.

`O=C(O)CCc1ccccc1-c1ccccc1`: the T/C is, setting by setting: (endpoint: mean survival time, dose: 50.0 mg/kg/injection, schedule: Q04DX002 (ip), vehicle: saline with Tween-80) 105 % of control; under setting [1], 96 % of control and 97 % of control; under setting [2], 103 % of control and 105 % of control; under setting [3], 100 % of control.

For the compound `[Cl][Pt][Cl].c1ccc([PH+](CC[PH+](c2ccccc2)c2ccccc2)c2ccccc2)cc1`, the T/C is 98 % of control (endpoint: mean survival time, dose: 37.5 mg/kg/injection, schedule: Q04DX003 (ip), vehicle: saline); 93 % of control (endpoint: mean survival time, dose: 75.0 mg/kg/injection, schedule: Q04DX003 (ip), vehicle: saline); 96 % of control (endpoint: mean survival time, dose: 150.0 mg/kg/injection, schedule: Q04DX003 (ip), vehicle: saline); 95 % of control (endpoint: mean survival time, dose: 300.0 mg/kg/injection, schedule: Q04DX003 (ip), vehicle: saline).
